In DBAASP:
Converted amounts (≈) assume the structure as drawn. “And” between values parts separate entries of the source, which are not always exact repeats. Equal entries are not always repeated. One block for each compound: values may come before it.

Legend:
Experiment in all cases: ≥ marks a high value that may be exact or a test limit, other limits are often not marked, values filed in µg/mL are converted to µM
[1] = tested on: Staphylococcus epidermidis ATCC 12228
[2] = tested on: Escherichia coli KCTC 2433
[3] = tested on: Micrococcus luteus ATCC 4698
[4] = tested on: Candida albicans ATCC 36232
[5] = tested on: Pseudomonas aeruginosa ATCC 9027
[6] = tested on: Shigella dysenteriae ATCC 9752
[7] = tested on: Bacillus subtilis ATCC 6633
[8] = tested on: Staphylococcus aureus KCTC 3881
[9] = tested on: Klebsiella pneumoniae ATCC 10031
[10] = tested on: Proteus mirabilis ATCC 25933
[11] = tested on: Micrococcus luteus ATCC 49732
[12] = tested on: Pseudomonas aeruginosa ATCC 14502
[13] = tested on: Staphylococcus aureus ATCC 12600
[14] = tested on: Staphylococcus aureus ATCC 6538
[15] = tested on: Escherichia coli ATCC 11775
Escherichia coli SBS 363 = tested on: Escherichia coli SBS 363
[16] = tested on: Pseudomonas aeruginosa 3552
[17] = tested on: Enterococcus faecium CCARM 5028
[18] = tested on: Escherichia coli KCCM 11569
[19] = tested on: Staphylococcus aureus CCARM 3572
[20] = tested on: Pseudomonas aeruginosa CCARM 2092
[21] = tested on: Enterococcus faecium CCARM 5029
[22] = tested on: Pseudomonas aeruginosa CCARM 2095
[23] = tested on: Bacillus subtilis KCCM 11495
[24] = tested on: Mannheimia haemolytica Serovar 1
[25] = tested on: Mannheimia haemolytica Serovar 2
Aspergillus fumigatus = tested on: Aspergillus fumigatus
Staphylococcus aureus = tested on: Staphylococcus aureus
[26] = tested on: Pseudomonas aeruginosa PAO1
[27] = tested on: Mannheimia haemolytica Serovar 6
[28] = tested on: Salmonella enterica subsp. arizonae
Klebsiella pneumoniae = tested on: Klebsiella pneumoniae
Bibersteinia trehalosi = tested on: Bibersteinia trehalosi
Pasteurella multocida = tested on: Pasteurella multocida
[29] = tested on: Corynebacterium pseudotuberculosis ATCC 19410
[30] = tested on: Staphylococcus aureus C623
Escherichia coli UB1005 = tested on: Escherichia coli UB1005
[31] = tested on: Staphylococcus epidermidis C621
[32] = tested on: Pseudomonas aeruginosa Z61
[33] = tested on: Escherichia coli CGSC 4908
[34] = tested on: Aeromonas salmonicida A449
[35] = tested on: Pseudomonas aeruginosa K799
[36] = tested on: Salmonella enterica serovar typhimurium MS7953s
[37] = tested on: Salmonella enterica subsp. enterica serovar Typhimurium ATCC 14028s
[38] = tested on: Aeromonas salmonicida 97-4
[39] = tested on: Aeromonas salmonicida 99-1
Escherichia coli DC2 = tested on: Escherichia coli DC2
Candida albicans C627 = tested on: Candida albicans C627

MIC [17]: 0.693 µM and 1.39 µM
MIC [18]: 1.39 µM (≈ 2.83 µg/mL)
MIC [19]: 5.54 µM (≈ 11.3 µg/mL)
MIC [20]: 1.39 µM (≈ 2.83 µg/mL)
MIC [21]: 0.693 µM and 1.39 µM
MIC [22]: 2.77 µM (≈ 5.65 µg/mL)
MIC [23]: 0.49 µM (≈ 1 µg/mL)
SMILES: CC(C)C[C@H](NC(=O)CNC(=O)[C@H](CCCCN)NC(=O)[C@H](CCCCN)NC(=O)[C@H](CC(C)C)NC(=O)[C@H](CC(C)C)NC(=O)[C@H](C)NC(=O)[C@H](CC(N)=O)NC(=O)[C@H](CC(C)C)NC(=O)[C@H](Cc1c[nH]c2ccccc12)NC(=O)[C@@H](N)CCCCN)C(=O)N[C@@H](CC(N)=O)C(=O)N[C@@H](CS)C(=O)N[C@@H](C)C(=O)N[C@@H](CCCCN)C(=O)NCC(=O)N[C@H](C(=O)N[C@@H](CC(C)C)C(=O)N[C@@H](C)C(N)=O)C(C)C [KWLNALLKKGLNCAKGVLA]

MIC [30]: 29.3 µM (≈ 63.9 µg/mL)
MIC (Escherichia coli UB1005): 29.3 µM (≈ 63.9 µg/mL)
MIC [31]: 29.3 µM (≈ 63.9 µg/mL)
MIC [32]: 29.3 µM (≈ 63.9 µg/mL)
MIC [33]: 29.3 µM (≈ 63.9 µg/mL)
MIC [34]: 29.3 µM (≈ 63.9 µg/mL)
MIC [35]: 29.3 µM (≈ 63.9 µg/mL)
MIC [36]: 29.3 µM (≈ 63.9 µg/mL)
MIC [37]: 29.3 µM (≈ 63.9 µg/mL)
MIC [38]: 29.3 µM (≈ 63.9 µg/mL)
MIC [39]: 29.3 µM (≈ 63.9 µg/mL)
MIC (Escherichia coli DC2): 29.3 µM (≈ 63.9 µg/mL)
MIC (Candida albicans C627): 29.3 µM (≈ 63.9 µg/mL)
SMILES: CC[C@H](C)[C@H](NC(=O)[C@H](CO)NC(=O)[C@H](CCCCN)NC(=O)[C@@H](NC(=O)[C@@H](NC(=O)[C@H](CC(=O)O)NC(=O)[C@H](CCC(=O)O)NC(=O)[C@@H](NC(=O)[C@H](CO)NC(=O)[C@@H](N)CCCNC(=N)N)[C@@H](C)O)[C@@H](C)CC)[C@@H](C)CC)C(=O)N[C@@H](CO)C(=O)NCC(=O)NCC(=O)NCC(=O)N[C@@H](Cc1ccccc1)C(=O)N[C@@H](CC(C)C)C(=O)N[C@@H](CC(N)=O)C(=O)N[C@@H](C)C(=O)N[C@@H](CCSC)C(=O)N[C@@H](CC(N)=O)C(=O)N[C@@H](C)C(C)=O [RSTEDIIKSISGGGFLNAMNA]

More lines, now with the values behind:

SMILES: CC(C)C[C@H](NC(=O)[C@H](CC(C)C)NC(=O)[C@H](CC(C)C)NC(=O)[C@@H]1CCCN1C(=O)[C@H](CC(C)C)NC(=O)[C@@H](N)Cc1ccccc1)C(=O)N[C@@H](C)C(=O)NCC(=O)N[C@@H](CC(C)C)C(=O)N1CCC[C@H]1C(=O)N[C@@H](CC(C)C)C(=O)N[C@@H](CCCCN)C(=O)N[C@@H](CC(C)C)C(=O)N[C@H]1CSSC[C@@H](C(=O)O)NC(=O)[C@H](CCCCN)NC(=O)[C@H](CCCCN)NC(=O)[C@H](Cc2ccccc2)NC(=O)[C@H](CC(C)C)NC(=O)[C@H](Cc2ccccc2)NC1=O [FLPLLLAGLPLKLCFLFKKC]
MIC [1]: 21.9 µM (≈ 50 µg/mL)
MIC [2]: ≥ 43.9 µM
MIC [3]: 2.74 µM (≈ 6.24 µg/mL)
MIC [4]: 21.9 µM (≈ 50 µg/mL)
MIC [5]: > 43.9 µM
MIC [6]: ≥ 43.9 µM
MIC [7]: 21.9 µM (≈ 50 µg/mL)
MIC [8]: 5.49 µM (≈ 12.5 µg/mL)
MIC [9]: ≥ 43.9 µM
MIC [10]: ≥ 43.9 µM

SMILES: CC[C@H](C)[C@H](NC(=O)[C@H](C)NC(=O)[C@H](CO)NC(=O)[C@@H](NC(=O)[C@H](C)NC(=O)[C@H](CC(N)=O)NC(=O)[C@@H](NC(=O)[C@H](C)NC(=O)[C@H](Cc1cnc[nH]1)NC(=O)[C@@H]1CCCN1C(=O)[C@@H](NC(=O)[C@H](CC(C)C)NC(=O)[C@H](CO)NC(=O)[C@H](CC(C)C)NC(=O)[C@@H](N)Cc1ccccc1)[C@@H](C)CC)[C@@H](C)CC)C(C)C)C(=O)N[C@@H](C)C(=O)N[C@@H](CCCCN)C(=O)N[C@@H](Cc1cnc[nH]1)C(=O)N[C@@H](Cc1ccccc1)C(N)=O [FLSLIPHAINAVSAIAKHF]
MIC [11]: 1.8 µM (≈ 3.69 µg/mL)
MIC [12]: 6 µM (≈ 12.3 µg/mL)
MIC [13]: 3.6 µM (≈ 7.37 µg/mL)
MIC [14]: 6 µM (≈ 12.3 µg/mL)
MIC [15]: 7.2 µM (≈ 14.7 µg/mL)
MIC (Escherichia coli SBS 363): 6 µM (≈ 12.3 µg/mL)

SMILES: CC[C@H](C)[C@H](NC(=O)CNC(=O)[C@@H](NC(=O)[C@H](Cc1cnc[nH]1)NC(=O)[C@H](CCCCN)NC(=O)[C@H](CCCCN)NC(=O)[C@H](CC(C)C)NC(=O)[C@H](CCCCN)NC(=O)[C@H](Cc1c[nH]c2ccccc12)NC(=O)[C@@H](N)CCCCN)[C@@H](C)CC)C(=O)NCC(=O)N[C@@H](CCCCN)C(=O)N[C@@H](Cc1cnc[nH]1)C(=O)N[C@@H](Cc1ccccc1)C(=O)N[C@@H](CC(C)C)C(=O)N[C@@H](CO)C(=O)N[C@@H](C)C(=O)N[C@@H](CCCCN)C(=O)N[C@@H](CCCCN)C(=O)N[C@@H](Cc1ccccc1)C(N)=O [KWKLKKHIGIGKHFLSAKKF]
MIC [16]: 8 µM and 4 µM

SMILES: CC[C@H](C)[C@H](NC(=O)[C@H](CCCN=C(N)N)NC(=O)[C@H](CCCN=C(N)N)NC(=O)[C@@H](NC(=O)[C@@H](N)CC(N)=O)[C@@H](C)CC)C(=O)N[C@H](C(=O)N[C@@H](CCCN=C(N)N)C(=O)N[C@@H](CCCCN)C(=O)N[C@H](C(=O)N[C@H](C(=O)N[C@@H](Cc1cnc[nH]1)C(=O)N[C@H](C(=O)N[C@H](C(=O)N[C@@H](CCCCN)C(=O)N[C@@H](CCCCN)C(=O)N[C@@H](Cc1ccc(O)cc1)C(=O)O)[C@@H](C)CC)[C@@H](C)CC)[C@@H](C)CC)[C@@H](C)CC)[C@@H](C)CC [NIRRIIRKIIHIIKKY]
MIC [24]: 0.722 µM (≈ 1.5 µg/mL)
MIC [25]: 1.59 µM (≈ 3.3 µg/mL)
MIC (Aspergillus fumigatus): 4 µM (≈ 8.3 µg/mL)
MIC (Staphylococcus aureus): 4.81 µM (≈ 10 µg/mL)
MIC [26]: 2.02 µM (≈ 4.2 µg/mL)
MIC [27]: 1.59 µM (≈ 3.3 µg/mL)
MIC [28]: 2.41 µM (≈ 5 µg/mL)
MIC (Klebsiella pneumoniae): 0.818 µM (≈ 1.7 µg/mL)
MIC (Bibersteinia trehalosi): 3.61 µM (≈ 7.5 µg/mL)
MIC (Pasteurella multocida): 0.626 µM (≈ 1.3 µg/mL)
MIC [29]: 9.63 µM (≈ 20 µg/mL)
